Read-outs that look alike come from different tables or passages of the source. Positions of bridges follow the written chain, without caps; N, C: chain ends. Non-standard residues stand in square brackets, D forms with d. Residues, ends and D or L forms follow the SMILES beside them.
How the values were obtained:
[1] = target: human SSTR-5 (Homo sapiens, UniProt P35346); assay: Somatostatin receptor binding assay, hSSTR-5
[2] = target: human SSTR-2 (Homo sapiens, UniProt P30874); assay: Somatostatin receptor binding assay, hSSTR-2
Sequence of human SSTR-2 (P30874 whole entry): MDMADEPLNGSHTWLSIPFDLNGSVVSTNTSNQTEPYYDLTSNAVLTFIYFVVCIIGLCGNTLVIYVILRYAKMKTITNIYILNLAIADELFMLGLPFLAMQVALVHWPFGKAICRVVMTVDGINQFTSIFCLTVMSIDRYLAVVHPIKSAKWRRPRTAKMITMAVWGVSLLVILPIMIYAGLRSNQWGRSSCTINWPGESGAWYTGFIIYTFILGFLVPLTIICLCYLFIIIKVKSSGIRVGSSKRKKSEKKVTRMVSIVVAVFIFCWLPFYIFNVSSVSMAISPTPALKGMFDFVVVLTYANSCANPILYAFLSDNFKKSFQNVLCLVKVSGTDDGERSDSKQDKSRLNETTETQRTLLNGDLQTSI

[3] = system: fatty (fa/fa) Zucker rats; conditions: 3 mg/kg s.c. twice daily, 6 days
[4] = system: Obese (fa/fa) Zucker rats; assay: Lipidemia study, plasma glycerol and triglycerides; format: in vivo, rat
Protocol: Obese (fa/fa) Zucker rats were treated as in example 1 above. On the last day of treatment (day 6), food was removed at 5:00 p.m., and the rats were fasted overnight. At 9:00 a.m. the next day, the animals were subjected to a glucose challenge, given as 0.8 gram/kg of glucose orally. Periodic 400 μl of blood samples were taken from the tail vein (Peterson, R. G., ILAR News, 32:16-19 (1990)) 60 min. and 30 min. before and at 30, 60, 90, and 120 min. after the administration of the glucose challenge (0.8 gram/kg orally). Aprotinin (Traysylol, Bayer UK, Hayward's Health, W. Sussex, U.K.) and heparin (Sigma Chemical Co., Poole, Dorset, U.K.) were added to the blood samples to a final concentration of 400 KIU/ml and 100 units/ml, respectively. Plasma fractions were prepared from these samples by centrifugation at 4000×G in a microfuge, for the estimation of triglycerides and glycerol. Samples were then stored at −80° C. until assayed.
Plasma glycerol and triglycerides were determined using the Sigma Enzymatic (Tinder) calorimetric assay kit (Cat #337-B, Sigma Chemical Co., Poole, Dorset, U.K.) and measuring absorbance at 540 nm in a spectrophotometer.

[5] = system: fatty (fa/fa) Zucker rats; assay: Insulin sensitivity study, oral glucose challenge after one week treatment; format: in vivo, rat; conditions: 3 mg/kg s.c. twice daily, 7 days
Protocol: Male fatty Zucker rats (Harlan-Olac, Bicester, Oxon, U.K.), which were 15-17 weeks old, were randomly divided into two groups. The animals were house in pairs in a normal 12 hour light:12 hour darkness cycle at 20±2° C. and fed a standard laboratory rat diet (Beekay rat and mouse diet, Bantin & Kingman, Hull, Humberside, U.K.) ad libitum. For the group assigned to receive drug treatment, the rats received BIM-23268C at 3 mg/kg, by subcutaneous injection, twice a day at 10:00 AM and 5:00 PM. The other group, the control group, was treated with a subcutaneous injection of 0.lml/100 g of saline twice a day at 10:00 AM and 5:00 PM. […] On the last day of treatment, at 5:00 PM food was removed, and the rats were fasted overnight.
A method for assessing insulin sensitivity is to administer an oral glucose challenge and monitoring the secretion of insulin and disposal of glucose from the blood stream over a 240 min period (Bergman, R. N., et al., Endocrine Review 6:45-86 (1985)). […] 20 μl blood samples were taken from tail vein (Abdel-Halim, S. M., et al., Diabetes 43:281-288 (1994)) at −60 min, −30 min, 0 min, 30 min, 60 min, 90 min, 120 min, and 240 min.
The 20 μl samples were taken into 380 μl of hemolysis reagents (Sigma, Poole, Dorset, UK) containing 50 mg/liter of digitonin (Cat# D-1407) and 100 mg/liter of Maleimide (M-3766). From this, 100 μl of the hemolysed blood sample was added to 0.9 ml of Tinder reagent (Sigma Enzymatic calorimetric assay for blood glucose, Cat# 315-100, Sigma Chemical Co. Ltd, Poole, Dorset, UK). Blood glucose was determined according to vendor's recommendation at 505 nm.
Insulin was measured by the conventional radioimmunoassay method as described (Dunmore, S., & Beloff-Chain, A., J Endocrinol. 92:15-21 (1982)). Samples were assayed in triplicates with a 1:30000 dilution of an insulin antiserum (from guinea pig)raised in the laboratory (Dunmore, S. J., et al., J. Endocrinol. 137:375-381 (1993), and using ^125I-labelled bovine insulin, iodinated by the chloramine T method (Sambrook, et al., Molecular Cloning- A Laboratory Manual, Ed. 2., Cold Spring Harbor Laboratory Press, 1989). Rat insulin (2000U/0.1 ml, Novo Nordisk Laboratories, Basingstoke, Hants, U.K.) was used as a standard in the assay. The standards and samples were diluted in assay buffer containing NaH2PO4 5.7 g/L, bovine serum albumin (Sigma A4378, Sigma Chemical Co. Ltd., Poole, Dorset, UK) 5.0 g/L, NaN3 1.0 g/L buffered to pH 7.4). Antibody-bound insulin was separated on from free insulin by the addition of a second antibody (donkey anti-guinea pig Ig) coated on cellulose, Sac-Cel (IDS, Boldon, Tyne & Wear, UK). The antibody-bound insulin precipitate was separated by centrifugation. Counts bound were measured on an LKB Rackgamma solid scintillation counter.

[6] = target: human SSTR-1 (Homo sapiens, UniProt P30872); assay: Somatostatin receptor binding assay, hSSTR-1
Sequence of human SSTR-1 (P30872 whole entry): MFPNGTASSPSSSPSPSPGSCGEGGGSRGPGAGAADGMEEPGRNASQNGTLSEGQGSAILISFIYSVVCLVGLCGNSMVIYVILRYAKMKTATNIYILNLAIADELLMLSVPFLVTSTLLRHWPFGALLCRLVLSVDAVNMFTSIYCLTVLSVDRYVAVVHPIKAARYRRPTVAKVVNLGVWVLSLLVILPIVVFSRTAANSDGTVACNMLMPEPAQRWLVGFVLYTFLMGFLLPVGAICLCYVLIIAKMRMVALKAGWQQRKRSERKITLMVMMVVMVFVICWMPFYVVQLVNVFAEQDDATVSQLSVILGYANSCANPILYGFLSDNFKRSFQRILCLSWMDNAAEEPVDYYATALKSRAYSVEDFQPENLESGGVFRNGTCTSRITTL

[7] = target: human SSTR-3 (Homo sapiens, UniProt P32745); assay: Somatostatin receptor binding assay, hSSTR-3
Sequence of human SSTR-3 (P32745 whole entry): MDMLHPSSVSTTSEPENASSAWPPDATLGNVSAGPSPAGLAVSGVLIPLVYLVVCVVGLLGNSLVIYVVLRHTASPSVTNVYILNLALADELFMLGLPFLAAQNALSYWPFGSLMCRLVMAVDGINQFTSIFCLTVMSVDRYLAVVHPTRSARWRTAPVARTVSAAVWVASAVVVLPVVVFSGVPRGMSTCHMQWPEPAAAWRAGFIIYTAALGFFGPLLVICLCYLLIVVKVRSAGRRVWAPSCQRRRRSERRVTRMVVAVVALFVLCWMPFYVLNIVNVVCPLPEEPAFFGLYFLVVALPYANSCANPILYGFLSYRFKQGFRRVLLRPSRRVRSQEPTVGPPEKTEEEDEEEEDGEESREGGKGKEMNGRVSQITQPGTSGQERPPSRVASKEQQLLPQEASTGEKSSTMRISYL

[8] = target: human SSTR-4 (Homo sapiens, UniProt P31391); assay: Somatostatin receptor binding assay, hSSTR-4
Sequence of human SSTR-4 (P31391 whole entry): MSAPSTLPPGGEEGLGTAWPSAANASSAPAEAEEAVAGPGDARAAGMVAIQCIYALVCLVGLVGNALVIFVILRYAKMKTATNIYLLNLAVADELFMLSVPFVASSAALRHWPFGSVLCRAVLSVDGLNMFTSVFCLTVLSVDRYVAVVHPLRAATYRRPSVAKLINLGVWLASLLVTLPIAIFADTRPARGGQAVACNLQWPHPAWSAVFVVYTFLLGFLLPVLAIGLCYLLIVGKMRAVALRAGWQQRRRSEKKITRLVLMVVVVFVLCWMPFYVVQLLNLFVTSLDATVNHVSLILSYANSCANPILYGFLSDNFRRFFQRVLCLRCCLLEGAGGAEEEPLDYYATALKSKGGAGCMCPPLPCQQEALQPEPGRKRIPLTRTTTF

[9] = 3 mg/kg s.c. twice daily, 6 days, samples 30 and 60 minutes before oral glucose challenge, FIG. 1/2
[10] = throughout the 2-hour test period after oral glucose challenge

Sequence of human SSTR-5 (P35346 whole entry): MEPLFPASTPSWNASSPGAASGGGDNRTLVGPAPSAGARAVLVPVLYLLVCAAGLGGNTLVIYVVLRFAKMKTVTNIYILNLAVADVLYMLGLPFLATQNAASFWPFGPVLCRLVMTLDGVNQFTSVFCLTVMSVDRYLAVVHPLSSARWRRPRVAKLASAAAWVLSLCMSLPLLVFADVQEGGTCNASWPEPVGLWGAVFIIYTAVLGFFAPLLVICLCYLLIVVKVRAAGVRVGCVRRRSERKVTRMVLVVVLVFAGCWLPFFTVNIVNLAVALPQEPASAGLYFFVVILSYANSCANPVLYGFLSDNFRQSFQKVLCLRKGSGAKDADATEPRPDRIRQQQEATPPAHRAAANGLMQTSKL

C[C@@H](O)[C@@H]1NC(=O)[C@H](CCCCN)NC(=O)[C@@H](Cc2c[nH]c3ccccc23)NC(=O)[C@H](Cc2ccccc2)NC(=O)[C@H](Cc2ccccc2)NC(=O)[C@@H](N)CSSC[C@@H](C(N)=O)NC(=O)[C@H](Cc2ccccc2)NC1=O [BIM-23268, H-Cys-Phe-Phe-D-Trp-Lys-Thr-Phe-Cys-NH2] (H-CFF[dW]KTFC-NH2; disulfide 1-8)
Ki ([1]; read-out: Ki hSSTR-5): 0.42 nM | Ki ([2]; read-out: Ki hSSTR-2): 15.1 nM | amount of food consumed over the entire treatment period versus control [3]: no difference | body weight gain versus control [3]: lower | toxic effect, appearance of treated group [3]: appeared healthy | group mean weight after six days ([3]; 413.6 at start of trial, control 414.09 to 418.89): 413.6 | average food consumption ([3]; control 26.0): 25.9 g/rat/day | plasma glycerol [4, 9]: significantly lowered | plasma triglycerides [4, 9]: significantly lowered | hypertriglyceridemia ([4]; 6-day treatment, 3 mg/kg s.c. twice daily): effective in reducing hypertriglyceridemia | plasma glycerol [4, 10]: significantly lower | plasma triglycerides [4, 10]: significantly lower | insulin-sensitivity [5]: produced an improvement in insulin-sensitivity | glucose tolerance ([5]; oral glucose 0.8 g/kg after overnight fast): did not show an impairment in glucose tolerance | glucose stimulated insulin secretion to the glucose challenge ([5]; oral glucose 0.8 g/kg after overnight fast, vs saline group): significant suppression | plasma glucose profile versus untreated group ([5]; oral glucose 0.8 g/kg, up to 240 min): not significantly different | Ki ([6]; read-out: Ki hSSTR-1): 1230 nM

NCCCC[C@@H]1NC(=O)[C@@H](Cc2c[nH]c3ccccc23)NC(=O)[C@H](Cc2ccccc2)NC(=O)[C@H](Cc2ccccc2)NC(=O)[C@@H](N)CSSC[C@@H](C(N)=O)NC(=O)[C@H](Cc2ccccc2)NC(=O)[C@H](CO)NC1=O [BIM-23284, H-Cys-Phe-Phe-D-Trp-Lys-Ser-Phe-Cys-NH2] (H-CFF[dW]KSFC-NH2; disulfide 1-8)
Ki [1]: 0.85 nM | Ki [2]: 19.3 nM | Ki [7]: 35.6 nM | Ki [8]: 58.6 nM | Ki [6]: 27.9 nM

C[C@@H](O)[C@@H]1NC(=O)[C@H](CCCCN)NC(=O)[C@@H](Cc2c[nH]c3ccccc23)NC(=O)[C@H](Cc2ccc(O)cc2)NC(=O)[C@H](Cc2ccccc2)NC(=O)[C@@H](N)CSSC[C@@H](C(N)=O)NC(=O)[C@H](Cc2ccccc2)NC1=O [BIM-23295, H-Cys-Phe-Tyr-D-Trp-Lys-Thr-Phe-Cys-NH2] (H-CFY[dW]KTFC-NH2; disulfide 1-8)
Ki [1]: 0.34 nM | Ki [2]: 6.19 nM | Ki [7]: 9.7 nM | Ki [8]: 3.4 nM | Ki [6]: 86.9 nM

C[C@@H](O)[C@@H]1NC(=O)[C@H](CCCCN)NC(=O)[C@@H](Cc2c[nH]c3ccccc23)NC(=O)[C@H](Cc2ccc(O)c(I)c2)NC(=O)[C@H](Cc2ccccc2)NC(=O)[C@@H](N)CSSC[C@@H](C(N)=O)NC(=O)[C@H](Cc2ccccc2)NC1=O [BIM-23313, H-Cys-Phe-Tyr(I)-D-Trp-Lys-Thr-Phe-Cys-NH2]
Ki ([6]; membranes of transfected CHO-K1 cells, [125I-Tyr11]somatostatin-14 0.05 nM, read-out: Ki hSSTR-1): 15.1 nM

Reference: US20020042374A1, “METHOD OF TREATING INSULIN INSENSITIVITY AND SYNDROME X” (priority 1997, published 2002)
